Source: US8859620B2, “Phthalanilate compounds and methods of use” (University of Notre Dame du Lac, priority 2009, dated 2014)
In brackets after ≈: the same amount, converted by molar mass. Read-outs that look alike come from different tables or passages of the source.

How the values were obtained:
[1] = molecular target: TEM-1 (class A β-lactamase) (Escherichia coli, UniProt P62593); assay: β-Lactamase assay (nitrocefin colour change), TEM-1; format: biochemical; details: Table 10; class symbols x/xx/xxx, key not given
Chain of TEM-1 (class A β-lactamase) (P62593 24-286 limits assumed): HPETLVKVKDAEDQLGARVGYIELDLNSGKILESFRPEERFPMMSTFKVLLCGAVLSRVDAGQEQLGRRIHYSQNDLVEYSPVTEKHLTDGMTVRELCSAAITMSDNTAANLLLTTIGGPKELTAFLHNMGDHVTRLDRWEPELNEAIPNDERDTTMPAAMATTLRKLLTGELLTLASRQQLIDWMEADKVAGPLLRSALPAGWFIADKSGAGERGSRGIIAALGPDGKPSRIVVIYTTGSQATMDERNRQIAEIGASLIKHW
Procedure: (§1) β-Lactamase Assays (TEM-1, P99, and OXA-10): The activity of the compounds of the invention (inhibitors) toward β-lactamases was evaluated using 96 well plates. The reaction mixture included 10 mM sodium phosphate, pH 7.0, 150 mM sodium chloride, 0.01% Triton X-100, 100 μM nitrocefin, 10 nM of β-lactamases (class A: TEM-1; class C: P99, or class D: OXA-10), and variable concentrations of the inhibitors in a total volume of 100 μL. β-Lactamases were pre-incubated with the compounds at room temperature for 5 minutes, and the assay was initiated by the addition of nitrocefin. The inhibition of the enzyme activity by the compounds was determined by monitoring color change (from yellow to red) of nitrocefin after 20 minutes. Stock solutions of the compounds were prepared in dimethyl sulfoxide (DMSO). No more than 5% DMSO was present in assays, unless noted otherwise. B1aR Assay: The surface domain of B1aR (1 μM) was added to each inhibitor (at various concentrations) in 100 mM sodium phosphate, 50 mM sodium bicarbonate, at pH 7.0. The reaction mixtures were incubated at room temperature for 20 minutes. BOCILLIN FL, a fluorogenic ligand, was added to a concentration of 20 μM in a final volume of 20 μL. The mixtures were incubated at 37° C. for 5 minutes, at which point the reactions were quenched by the addition of 15 μL of the SDS sample buffer (125 mM Tris, 4% SDS, 20% glycerol, 2% 2-mercaptoethanol, pH 6.8), and were boiled for 4 minutes. The samples were loaded onto 15% SDS-PAGE, the gel was developed and scanned using a Storm 840® Fluorimager. The fluorescent bands of BOCILLIN FL-labeled B1aR^S were analyzed by Image Quant 5.2 software. PBP2 Assay: The PBP2 assay was performed according to the methods of Villegas-Esterada et al. (J. Am. Chem. Soc. 2008, 130, 9212-9213).

[2] = molecular target: P99 (class C β-lactamase) (Enterobacter cloacae, UniProt P05364); assay: β-Lactamase assay (nitrocefin colour change), P99; format: biochemical; details: Table 10; class symbols x/xx/xxx, key not given
Chain of P99 (class C β-lactamase) (P05364 21-381): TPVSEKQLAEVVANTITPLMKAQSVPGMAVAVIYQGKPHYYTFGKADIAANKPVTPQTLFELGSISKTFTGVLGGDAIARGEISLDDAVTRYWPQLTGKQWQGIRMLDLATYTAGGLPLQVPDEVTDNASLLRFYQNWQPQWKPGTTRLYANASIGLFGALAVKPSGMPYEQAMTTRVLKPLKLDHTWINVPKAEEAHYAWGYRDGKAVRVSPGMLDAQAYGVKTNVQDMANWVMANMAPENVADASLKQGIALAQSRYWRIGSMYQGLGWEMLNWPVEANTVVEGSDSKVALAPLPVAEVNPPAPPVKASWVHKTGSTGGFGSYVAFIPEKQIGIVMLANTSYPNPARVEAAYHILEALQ
Procedure: as §1

[3] = molecular target: OXA-10 (class D β-lactamase) (Pseudomonas aeruginosa, UniProt P14489); assay: β-Lactamase assay (nitrocefin colour change), OXA-10; format: biochemical; details: Table 10; class symbols x/xx/xxx, key not given
Chain of OXA-10 (class D β-lactamase) (P14489 20-266, species assumed): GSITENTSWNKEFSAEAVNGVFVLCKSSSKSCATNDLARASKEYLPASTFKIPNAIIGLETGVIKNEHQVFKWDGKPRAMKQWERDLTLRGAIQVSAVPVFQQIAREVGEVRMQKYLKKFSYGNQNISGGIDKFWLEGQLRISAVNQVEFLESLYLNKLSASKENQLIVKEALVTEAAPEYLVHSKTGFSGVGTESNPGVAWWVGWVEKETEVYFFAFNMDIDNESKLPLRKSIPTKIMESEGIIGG
Procedure: as §1

S. aureus NRS100 (Mec^R) = assay: MIC against S. aureus NRS100 (Table 14); format: cell-based, Staphylococcus aureus; details: compounds dissolved in DMSO or 1% sodium carbonate
Procedure: The recited compounds were dissolved in DMSO or in 1% sodium carbonate and transferred into micro titer plate to final concentration of 1000 μg/mL.

S. aureus NRS11 (Mec^S) = assay: MIC against S. aureus NRS11 (Table 13); format: cell-based, Staphylococcus aureus; details: compounds dissolved in DMSO or 1% sodium carbonate
Procedure: All recited compounds were dissolved in DMSO or in 1% sodium carbonate and transferred to micro titer plates to final concentrations of 1000 μg/mL.

[4] = Staphylococcus aureus, read-out: MIC

Row | Compound | TEM-1 [1] | P99 [2] | OXA-10 [3] | further results
1 | O=C(Nc1ccc(Cl)c(C(F)(F)F)c1)c1cccc([N+](=O)[O-])c1C(=O)O [Compound 86] | xx | – | – | –
2 | O=C(O)c1c(Br)c(Br)c(Br)c(Br)c1C(=O)Nc1ccc(Cl)c(C(F)(F)F)c1 [Compound 89] | xx | xxx | xxx | –
3 | CC(=O)OCC1=C(C(=O)O)N2C(=O)C(N3C(=O)C4=C(SCCS4)C3=O)C2SC1 (stereo not drawn) [Compound 118] | – | xxx | – | –
4 | NC(=O)C1=C(C(=O)O)SCCS1 [Compound 120] | – | – | xx | –
5 | O=C1C2=C(SCCS2)C(=O)N1C(CO)[C@H](O)c1ccccc1 (stereo partly drawn) [Compound 138] | xxx | xxx | – | –
6 | O=C1C2=C(SCCS2)C(=O)N1[C@@H](CO)[C@@H](O)c1ccc([N+](=O)[O-])cc1 [Compound 140] | xx | xx | xx | –
7 | O=C(O)c1c(Br)c(Br)c(Br)c(Br)c1C(=O)Nc1cccc(C(F)(F)F)c1 [Compound 196] | xx | xx | – | –
8 | N#Cc1cccc(NC(=O)c2c(Br)c(Br)c(Br)c(Br)c2C(=O)[O-])c1.[Na+] [Compound 201] | xx | xxx | xx | –
9 | O=C(O)c1c(Br)c(Br)c(Br)c(Br)c1C(=O)Nc1ccc(CO)cc1 [Compound 223] | xxx | xxx | xxx | –
10 | O=C1c2c(Br)c(Br)c(Br)c(Br)c2C(=O)N1c1ccc(OCc2ccccc2)c(Cl)c1 [Compound 227] | xxx | – | xxx | –
11 | CCCCCCCCOc1ccc(N2C(=O)c3c(Br)c(Br)c(Br)c(Br)c3C2=O)cc1 [Compound 230] | – | – | – | MIC (S. aureus NRS100 (Mec^R); [4]): > 16 µg/mL
12 | O=C(O)CC1(CC(=O)Nc2ccc(Cl)c(C(F)(F)F)c2)CCCC1 [Compound 246] | – | – | xx | –
13 | O=C(O)c1c(Cl)c(Cl)c(Cl)c(Cl)c1C(=O)Nc1ccc(CO)cc1 [Compound 254] | – | – | xx | –
14 | O=C(O)c1c(Cl)c(Cl)c(Cl)c(Cl)c1C(=O)Nc1ccc(Cl)c(C(F)(F)F)c1 [Compound 258] | xxx | xx | xx | –
15 | O=C(O)c1c(Cl)c(Cl)c(Cl)c(Cl)c1C(=O)Nc1cccc(Oc2ccccc2)c1 [Compound 268] | xxx | xx | – | –
16 | CCCCCCCCOc1ccc(N(C)C(=O)c2c(Cl)c(Cl)c(Cl)c(Cl)c2C(=O)OC)cc1 [Compound 282] | – | – | xxx | –
17 | CCCCCCCCOc1ccc(N)cc1Cl [Compound 299] | – | – | – | MIC (S. aureus NRS100 (Mec^R); [4]): 16 µg/mL (≈ 0.0626 mM)
18 | CCCCCCCCOc1ccc(N(C)C(=O)c2c(F)c(F)c(F)c(F)c2C(=O)O)cc1 [Compound 305] | – | xx | xx | MIC (S. aureus NRS100 (Mec^R); [4]): 16 µg/mL (≈ 0.0351 mM)
19 | CCCCCCCCOc1ccc(N(C)C(=O)c2c(Br)c(Br)c(Br)c(Br)c2C(=O)O)cc1 [Compound 307] | – | – | xxx | –
20 | CCCCOC(=O)c1ccc(NC(=O)Nc2ccccc2C(=O)O)cc1 [Compound 325] | – | – | – | MIC (S. aureus NRS11 (Mec^S)): 256 µg/mL (≈ 0.718 mM); MIC (S. aureus NRS100 (Mec^R)): 256 µg/mL (≈ 0.718 mM)
21 | CCCCOC(=O)c1ccc(NC(=O)N(C)c2ccccc2C(=O)O)cc1 [Compound 326] | – | – | – | MIC (S. aureus NRS11 (Mec^S)): 2,000 μg/mL; MIC (S. aureus NRS100 (Mec^R)): 2,000 μg/mL
22 | CC(C)C[C@@H](C(=O)O)C(C(=O)O)C(=O)OC(C)(C)C (stereo partly drawn) [Compound 330] | – | – | – | MIC (S. aureus NRS11 (Mec^S)): 2,000 μg/mL; MIC (S. aureus NRS100 (Mec^R)): 2,000 μg/mL
23 | CCCCOC(=O)c1ccc(NC(=O)c2ccccc2C(=O)O)cc1 [Compound 331] | – | – | – | MIC (S. aureus NRS11 (Mec^S); [4]): 2000 µg/mL (≈ 5.86 mM); MIC (S. aureus NRS100 (Mec^R); [4]): 2000 µg/mL (≈ 5.86 mM)
24 | CCCCOC(=O)c1ccc(NC(=O)c2c(F)c(F)c(F)c(F)c2C(=O)O)cc1 [Compound 332] | – | – | – | MIC (S. aureus NRS11 (Mec^S); [4]): 2000 µg/mL (≈ 4.84 mM); MIC (S. aureus NRS100 (Mec^R); [4]): 2000 µg/mL (≈ 4.84 mM)
